Results on 9 compounds are retold here after article PMC4897788, “Design, biological evaluation and 3D QSAR studies of novel dioxin-containing pyrazoline derivatives with thiourea skeleton as selective HER-2 inhibitors” (Scientific Reports, 2016).

The target of data set [1] is EGFR (Homo sapiens, UniProt P00533). The data set can be described thus: EGFR autophosphorylation kinase assay (DELFIA/time-resolved fluorometry).
For data set [2], the system named is MDA-MB-453 human breast cancer cell line. The data set can be described thus: Anti-proliferation assay (MTT), MDA-MB-453. It is filed as cell-based. The following applies: 24 h. The procedure: (§1) MCF-7 human breast cancer cells was cultured in DMEM/10% fetal bovine serum, in 5% CO2 water saturated atmosphere at 37 °C. MDA-MB-453 human breast cancer cells was cultured in L-15 medium in 100% air at 37 °C. Cell suspensions (10000/mL) were prepared and 100 μL/well dispensed into 96-well plates (Costar) giving 1000 cells/well. The plates were returned to the incubator for 24 h to allow the cells to reattach. These compounds were initially prepared at 20 mM in DMSO. Aliquots (200 μL) were diluted into 20 mL culture medium giving 200 μM, and 10 serial dilutions of 3× prepared. Aliquots (100 μL) of each dilution were added to the wells, giving doses ranging from 100 μM to 0.005 μM. After a further incubated at 37 °C for 24 h in a humidified atmosphere with 5% CO2, the cell viability was assessed by the conventional 3-(4,5-dimethylthiazol-2-yl)-2,5-diphenyltetrazolium bromide (MTT) reduction assay and carried out strictly according to the manufacturer instructions (Sigma). The absorbance at 590 nm was recorded using LX300 Epson Diagnostic micro-plate reader. Then GI50 was calculated using SPSS 13.0 software.

The test system of data set [3] is MCF-7 human breast cancer cell line. Description: Anti-proliferation assay (MTT), MCF-7. It is filed as cell-based. The following applies: MCF7, 24 h. The procedure:
as §1

In data set [4] the target is HER-2 (Homo sapiens, UniProt P04626). The data set can be described thus: HER-2 autophosphorylation kinase assay (DELFIA/time-resolved fluorometry). The following applies: for SI EGFR/HER-2: selectivity index, IC50 EGFR/IC50 HER-2.
Sequence of HER-2 (P04626 676-1245): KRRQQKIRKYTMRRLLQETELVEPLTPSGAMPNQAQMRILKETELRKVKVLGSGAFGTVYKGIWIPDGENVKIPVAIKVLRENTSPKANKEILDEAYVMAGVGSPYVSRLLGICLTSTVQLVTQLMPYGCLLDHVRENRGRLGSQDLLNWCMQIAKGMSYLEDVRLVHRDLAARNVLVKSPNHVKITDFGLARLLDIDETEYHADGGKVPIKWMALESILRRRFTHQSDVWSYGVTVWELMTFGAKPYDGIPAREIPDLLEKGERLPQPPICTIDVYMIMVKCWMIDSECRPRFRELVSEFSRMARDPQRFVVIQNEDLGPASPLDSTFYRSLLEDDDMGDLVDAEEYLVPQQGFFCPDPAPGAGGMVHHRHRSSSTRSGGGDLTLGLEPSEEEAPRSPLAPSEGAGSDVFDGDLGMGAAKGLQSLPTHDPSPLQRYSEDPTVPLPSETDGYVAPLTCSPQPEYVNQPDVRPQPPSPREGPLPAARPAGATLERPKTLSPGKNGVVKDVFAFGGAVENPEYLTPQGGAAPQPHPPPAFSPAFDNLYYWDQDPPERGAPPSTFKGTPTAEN
Protocol: A sequence that encodes (His)6 was located at the 5′ upstream to the HER-2 and EGFR sequences. Sf-9 cells were infected for 3 days for protein expression. Sf-9 cell pellets were solubilized at 0 °C in a buffer at pH 7.4 containing 50 mM HEPES, 10 mM NaCl, 1% Triton, 10 μM ammonium molybdate, 100 μM sodium vanadate, 10 μg/mL aprotinin, 10 μg/mL leupeptin, 10 μg/mL pepstatin, and 16 μg/mL benzamidine, HCl for 20 min followed by 20 min centrifugation. Crude extract supernatant was passed through an equilibrated Ni–NTA superflow packed column and washed with 10 mM and then 100 mM imidazole to remove nonspecifically bound material. Histidine-tagged proteins were eluted with 250 and 500 mM imidazole and dialyzed against 50 mM NaCl, 20 mM HEPES, 10% glycerol and 1 μg/mL each of aprotinin, leupeptin, and pepstatin for 2 h. The entire purification procedure was performed at 4 °C or on ice.
Both EGFR and HER-2 kinase assays were set up to assess the level of autophosphorylation based on DELFIA/Time-Resolved Fluorometry. […] Then, 10 μL of 5× buffer (containing 20 mM HEPES, 2 mM MnCl2, 100 μM Na3VO4, and 1 mM DTT) and 20 μL of 0.1 mM ATP-50 mM MgCl2 was added for 1 h. Positive and negative controls were included in each plate by incubation of enzyme with or without ATP-MgCl2. At the end of incubation, liquid was aspirated and plates were washed three times with wash buffer. A 75 μL (400 ng) sample of europium-labeled anti-phosphotyrosine antibody was added to each well for another 1 h of incubation. […] The IC50 was obtained from curves of percentage inhibition with eight concentrations of compound. As the contaminants in the enzyme preparation are fairly low, the majority of the signal detected by the anti-phosphotyrosine antibody is from EGFR or HER-2. The experiment was performed for three independent times and in triplicate each time.

Sequence of EGFR (P00533 669-1210): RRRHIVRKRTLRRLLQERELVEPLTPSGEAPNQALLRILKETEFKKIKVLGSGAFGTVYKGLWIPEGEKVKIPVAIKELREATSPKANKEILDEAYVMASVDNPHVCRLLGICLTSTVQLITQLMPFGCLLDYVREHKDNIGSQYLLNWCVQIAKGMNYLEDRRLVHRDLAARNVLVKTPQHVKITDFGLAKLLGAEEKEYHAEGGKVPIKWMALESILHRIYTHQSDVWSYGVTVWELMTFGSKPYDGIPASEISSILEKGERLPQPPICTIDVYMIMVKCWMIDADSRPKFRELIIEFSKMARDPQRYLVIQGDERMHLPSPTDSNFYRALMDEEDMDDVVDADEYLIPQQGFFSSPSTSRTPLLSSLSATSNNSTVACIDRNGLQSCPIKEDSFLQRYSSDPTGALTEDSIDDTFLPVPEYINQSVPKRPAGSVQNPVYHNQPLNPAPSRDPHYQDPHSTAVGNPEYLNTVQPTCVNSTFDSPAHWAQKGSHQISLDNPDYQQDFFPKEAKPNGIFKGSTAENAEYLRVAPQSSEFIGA

In the case of `NC(=S)N1N=C(c2ccc3c(c2)OCCO3)CC1c1ccccc1` (stereo not shown) [Compound C1, 3-(2,3-dihydrobenzo[b][1,4]dioxin-6-yl)-5-phenyl-4,5-dihydro-1H-pyrazole-1-carbothioamide], the melting point was in the range of 166 to 168 °C. For the same compound, the IC50 in data set [1] worked out at 21.9 ± 2.03 µM. Also, the GI50 in data set [2] turned out to be 63.4 ± 6.12 µM. Halving of growth in data set [3] (GI50) required 10 ± 0.91 µM. In addition, in data set [4], the IC50 is 16 ± 1.45 µM and the “SI EGFR/HER-2” value is listed as 1.36.
In the case of `NC(=S)N1N=C(c2ccc3c(c2)OCCO3)CC1c1cccc2ccccc12` (stereo not shown) [Compound C2, 3-(2,3-dihydrobenzo[b][1,4]dioxin-6-yl)-5-(naphthalen-1-yl)-4,5-dihydro-1H-pyrazole-1-carbothioamide], the melting point is 214 to 216 °C. Besides, the midpoint of inhibition in data set [1], the IC50, lay at 2.94 ± 0.26 µM. Also, growth in data set [2] was halved (GI50) at 2.2 ± 0.18 µM. Also, in data set [3], the GI50 was 4.68 ± 0.42 µM. Besides, in data set [4], inhibition was half-maximal at 0.56 ± 0.05 µM (IC50) and the “SI EGFR/HER-2” value came out at 5.25.
For `NC(=S)N1N=C(c2ccc3c(c2)OCCO3)CC1c1ccc2ccccc2c1` (stereo not shown) [Compound C3, 3-(2,3-dihydrobenzo[b][1,4]dioxin-6-yl)-5-(naphthalen-2-yl)-4,5-dihydro-1H-pyrazole-1-carbothioamide], the melting point was in the range of 204 to 206 °C. The IC50 in data set [1] is 4.42 ± 0.35 µM. This compound also showed a concentration for 50% growth inhibition (GI50) in data set [2] of 19.9 ± 1.84 µM. The compound further had a GI50 in data set [3] of 5.3 ± 0.49 µM. Further, in data set [4], the IC50 was found to be 7.18 ± 0.65 µM and the “SI EGFR/HER-2” value turned out to be 0.62.
For the compound `NC(=S)N1N=C(c2ccc3c(c2)OCCO3)CC1c1ccccc1F` (stereo not shown) [Compound C4, 3-(2,3-dihydrobenzo[b][1,4]dioxin-6-yl)-5-(2-fluorophenyl)-4,5-dihydro-1H-pyrazole-1-carbothioamide], the melting point was in the range of 169 to 171 °C. Half-maximal inhibition in data set [1] (IC50) required 59.3 ± 5.58 µM. Besides, in data set [2], the GI50 is > 300 µM. In addition, the GI50 in data set [3] stood at 185 ± 17.8 µM. Besides, in data set [4], inhibition was half-maximal at 125 ± 10.2 µM (IC50) and the “SI EGFR/HER-2” value is listed as 0.47.
Consider `COc1cccc(C2CC(c3ccc4c(c3)OCCO4)=NN2C(N)=S)c1` (stereo not shown) [Compound C5, 3-(2,3-dihydrobenzo[b][1,4]dioxin-6-yl)-5-(3-methoxyphenyl)-4,5-dihydro-1H-pyrazole-1-carbothioamide], for which the melting point was 168 to 170 °C. Inhibition in data set [1] was half-maximal at 43.6 ± 4.1 µM (IC50). Besides, in data set [2], the GI50 stood at 135 ± 11.1 µM. In data set [3], the GI50 was determined as 57.2 ± 5.36 µM. In addition, in data set [4], the IC50 worked out at 86.5 ± 8.05 µM and the “SI EGFR/HER-2” value is listed as 0.50.
As for `NC(=S)N1N=C(c2ccc3c(c2)OCCO3)CC1c1cccc(OCc2ccccc2)c1` (stereo not shown) [Compound C6, 5-(3-(benzyloxy)phenyl)-3-(2,3-dihydrobenzo[b][1,4]dioxin-6-yl)-4,5-dihydro-1H-pyrazole-1-carbothioamide], the melting point was 178 to 180 °C. Besides, half-maximal inhibition in data set [1] (IC50) was put at 4.49 ± 0.41 µM. For the same compound, growth in data set [2] was halved (GI50) at 0.2 ± 0.02 µM. The GI50 in data set [3] worked out at 4.95 ± 0.43 µM. For the same compound, in data set [4], the IC50 is 0.06 ± 0.004 µM and the “SI EGFR/HER-2” value came out at 74.8.
`NC(=S)N1N=C(c2ccc3c(c2)OCCO3)CC1c1cccc(Cl)c1` (stereo not shown) [Compound C7, 5-(3-chlorophenyl)-3-(2,3-dihydrobenzo[b][1,4]dioxin-6-yl)-4,5-dihydro-1H-pyrazole-1-carbothioamide] registered a melting point of 246 to 248 °C. In data set [1], this compound came in with an IC50 of 9.45 ± 0.88 µM. For the same compound, the GI50 in data set [2] is > 300 µM. Further, growth in data set [3] was halved (GI50) at 16.8 ± 0.98 µM. Also, in data set [4], the IC50 was found to be 62.8 ± 5.67 µM and the “SI EGFR/HER-2” value was 0.15.
As to `C#Cc1cccc(Nc2ncnc3cc(OCCOC)c(OCCOC)cc23)c1` [Erlotinib, reference compound], the GI50 worked out at 1.56 ± 0.14 µM in data set [2] and 0.08 ± 0.006 µM in data set [3].
Regarding `CS(=O)(=O)CCNCc1ccc(-c2ccc3ncnc(Nc4ccc(OCc5cccc(F)c5)c(Cl)c4)c3c2)o1` [Lapatinib, reference compound], the GI50 in data set [2] stood at 0.03 ± 0.002 µM; in data set [3], 3.12 ± 0.24 µM.

One may read the IC50 as the midpoint of a concentration-inhibition curve. A low value points to higher potency. One may read the GI50 as the concentration at which growth is held to half of that of the control. A low value points to more potent growth inhibition. As a reminder, the melting point is the temperature of the solid-liquid transition.
